Data on five compounds can be found in patent publication US4968686A, “Acyclic pyrrolo [2,3-d]pyrimidine analogs as antiviral agents” (The Regents of The University of Michigan, priority 1989, dated 1990).

pIC50: −log10 of the molar value.

The test system of the experiment is HCMV DNA synthesis. Description: HCMV DNA synthesis by dot-blot hybridization. The format is cell-based, human cytomegalovirus in HFF cells. Conditions: Human betaherpesvirus 5, read-out: HCMV DNA Synthesis, 50% Inhibitory Concentration. On the procedure:
The amount of HCMV DNA synthesis was determined in two types of experiments: (a) as an integral part of HCMV titer (yield) reduction experiments and (b) as separate experiments to determine only the amount of viral DNA synthesis in the absence or presence of test compounds.
HFF cells were planted in 25 cm^2 flasks and infected with HCMV as described in part 2 and incubated at 37° C. Before harvesting at selected times by the addition of 0.1 volume of 0.2M EDTA, an aliquot of medium was removed for determination of HCMV titer. After harvesting cells into the medium, aliquots were retained for determination of HCMV DNA by hybridization.
HFF cells were planted in 96-well cluster plates at 20,000 cell/well in 200 μl of growth medium [MEM(E)] with 1.1 gm/liter NaHCO3 and 10% fetal bovine serum. After incubation in a humidified atmosphere of 4% CO2 -96% air for 1 to 2 days, growth medium was aspirated and the 70% confluent cells were infected at a m.o.i. of 0.5 p.f.u. per cell by addition of HCMV in 100 μl of MEM(E) with 1.1 gm/l liter NaHCO3 and 5% fetal bovine serum (maintenance medium). Following a 1-hour incubation at 37° C. for virus adsorption, 100 μl of selected concentrations of test compounds were added to each of triplicate wells in twice their final concentration of maintenance medium. Usually 3 to 6 concentrations of compounds were tested in 3.2- or 10-fold dilutions along with appropriate triplicate no drug and no virus controls. Plates were incubated for 7 days and harvested by addition of 100 μl of 0.25M EDTA per well. After a 30-minute incubation of 37° C. to free the cells, the contents of the wells were filtered as described below or frozen at -76° C. for subsequent analysis. The following procedure adapted from Gadler, H., Antimicrob. Agents Chemother., 24:370 (1983) was employed for the hybridization portion of the assay:
The contents of each well were removed and filtered through Gene Screen™ (NEN Research Products), presoaked in 10×SSC (1×SSC is 0.15M NaCl, 0.015M NaCitrate), using a 96-well filtration manifold (Schleicher and Schuell). The original microtiter plate wells were rinsed with 200 μl HEPES buffered saline and the contents added to the filter manifold.
The Gene Screen membrane was dried at room temperature and then baked at 80° to 100° C. for 3 to 4 hours. The DNA on the membrane was denatured by placing the membrane (sample side up) sequentially on filter papers soaked in (a) 0.5M NaOH for 30 minutes, (b) 0.1 M NaOH, 1.5M NaCl for 5 minutes, (c) 1M Tris HCl, pH 7.5 twice each for 5 minutes, (d) 0.5M Tris HCl, pH 7.5, 1.5M NaCl for 5 minutes and then dried at room temperature. The membrane was added to a "hybridization bag" and prehybridized at 65° C. for (greater or equal to) 6 hours in 10 ml 0.2% polyvinylpyrrolidone (MW 40,000); 0.2% ficoll (MW 400,000); 0.2% bovine serum albumin; 0.05 M Tris HCl, pH 7.5; 0.1% sodium pyrophosphate; 1M NaCl; 10% dextran sulfate (ME 500,000) and 0.1 mg/ml denatured salmon testes DNA. […]
Following hybridization, the membrane was washed sequentially in 100 ml 2×SSC at room temperature twice each for 5 minutes, 100 ml 2×SCC plus 1% SDS at 65° C. twice each for 30 minutes and then 100 ml 0.1×SSC at room temperature twice each for 30 minutes. The membrane was dried at room temperature and each filtration spot was cut from the membrane and placed into 4 ml of toluene/DPO scintillant and hybridized label counted in a liquid scintillation spectrometer. […]

For the compound `Nc1nc2c(ncn2COCCO)c(=O)[nH]1` [Acyclovir, reference compound], the pIC50 was 4.46.

As to `Nc1nc(O)c2ncn(COC(CO)CO)c2n1` [Ganciclovir (DHPG), reference compound], the pIC50 is 5.96.

For the compound `Nc1ncnc2c1c(Cl)cn2COCCO` [UMJD 100, 4-Amino-5-chloro-7-(2-hydroxyethoxymethyl)pyrrolo[2,3-d]-pyrimidine], the pIC50 was 4.82.

In the case of `Nc1ncnc2c1c(Br)cn2COCCO` [UMJD 102, 4-Amino-5-bromo-7-(2-hydroxyethoxymethyl)pyrrolo[2,3-d]-pyrimidine], the pIC50 is 5.49.

On to `Nc1ncnc2c1c(I)cn2COCCO` [UMJD 104, 4-Amino-5-iodo-7-(2-hydroxyethoxymethyl)pyrrolo[2,3-d]-pyrimidine], for which the pIC50 was 4.33.
